Values belong to the compound of their own block, whether it stands above or below them.
Assays:
[1] = system: NT2 cells stably expressing APP751; assay: SAHA treatment, APP fragments in NT2 cells; format: cell-based, human; details: SAHA application
Excerpt: (§1) We utilized a commercially available AlphaLISA detection kit to develop an HTS assay for identification of compounds that increase sAPPα production in CHO cells stably expressing APP751 (7WD10 cells) (FIG. 2.1B). There are several cell lines that have been used extensively in Alzheimer's disease research. For example, NT2 cells are highly used in AD basic and drug discovery research because they are derived from a human embryonal carcinoma cell line and they can be differentiated into post-mitotic neuron-like cells that develop functional dendrites and axons resembling primary neurons of the human brain [39]. NT2 cells also synthesize amyloid precursor protein important in Alzheimer's disease. However, the rate of growth of NT2 cells is much slower than rate of growth of 7WD10s cells, which makes them less HTS-amenable. We have analyzed both 7WD10 and NT2 cells for expression of the hallmark proteins of Alzheimer's disease: soluble APPα, soluble APPβ, Aβ, and membrane-bound full length APP (APP-FL). […] Since it was shown that broad HDAC inhibition results in a decrease of Aβ and an increase of soluble APPα [41] we tested both cell lines for the effect of application of SAHA (suberoylanilide hydroxamic acid or vorinostat), a pan-HDAC inhibitor [42].

[2] = system: 7WD10 (CHO) cells stably expressing APP751; assay: SAHA treatment, APP fragments in 7WD10 (CHO) cells; format: cell-based; details: SAHA application
Experimental: (§2) Western blot sAPPα release assay. 7WD10 cells were grown in 6-well plates and treated with test compounds and SAHA (vorinostat) at several concentrations in duplicate wells. After 24 h of drug exposure, the conditioned media (CM) was collected, centrifuged to remove cell debris and subjected to SDS-PAGE electrophoresis. sAPPα (6E10, mouse IgG from IBL America ltd) was detected using indicated antibody. To detect APP-FL holoprotein and C-terminal fragments (CTFs, CT15 antibody), the cells were lysed using lysis buffer (1% NP40) with complete protease inhibitor mix (Sigma) supplemented with sodium vanadate and microcystine. Samples were subjected to SDS-PAGE, transferred and immunoblotted with indicated antibodies and detected by enhanced chemiluminescence method. Quantification of Western blot signals was done using ImageJ software.
as §1

[3] = system: TrkA; assay: TrkA increase by THPI-244 analogs; format: cell-based
Excerpt: (§3) The following table illustrates Chemical structures and properties of THPI-244 analogs selected out of 37 analogs, and each have significant sAPPα increasing activity. Toxicity is the minimum dose for toxicity.

[4] = system: sAPPα; assay: sAPPα increasing activity of THPI-244 analogs; format: cell-based
Excerpt: as §3

[5] = BBB of THPI-244 analogs
Excerpt: as §3

[6] = system: Aβ40 in conditioned medium of 7WD10 cells; assay: Aβ40 release ELISA, 7WD10 cells; format: cell-based
Excerpt: sAPPα and Aβ40 release ELISA assay. 7WD10 cells stably expressing APP751 were used for the detection of sAPPα in the conditioned medium (CM). For the detection of sAPPα, human sAPPα assay kit from IBL (Immuno-Biological Laboratories Co., Ltd, cat #27734) was used. The kit is a solid phase sandwich ELISA using two different antibodies. The principle of the method is based on the use of tetra methyl benzidine (TMB) as a chromogen and the strength of the generated color is proportional to the quantities of human sAPPα. Briefly, cells were grown in 6-well plates and treated with compound 1 at 0, 50, 75, 100, 125 and 150 μM final concentrations. After 24 hours of compound exposure, the CM was collected, centrifuged to remove cell debris and used in the assay. 100 μL of EIA buffer was used as blank. The 100 μL of test samples were put in to each well and incubated the precoated plate overnight at […] covered with plate lid. After overnight incubation, wells were vigorously washed with wash buffer several times. Then 100 μL of labeled antibody was added, incubated at 40 C for 30 minutes and washed again several times. Plates were incubated with chromogen solution for 30 minutes, and read at 450 nm after adding stop solution. Levels of Aβ40 in the CM treated with different concentrations of compound 1 as detailed above were measured by sandwich ELISA exactly as described previously. Aβ40 was captured with Ab9 antibody (epitope, 1-16 of Aβ40) and detected with horseradish peroxidase-conjugated Ab13.1.1 antibody (epitope, 35-40 of Aβ40).

[7] = system: 7WD10 cells; assay: CellTiter-Glo cell viability assay; format: cell-based; details: for viability: 100 μM
Experimental: Cell viability assay. 7WD10 cells were plated in 384-well plates in 8 μL of media. Plates were incubated for 4 and 24 h at 37° C., 5% CO2 and 95% RH. After incubation, 8 μL of CellTiter-Glo® (Promega cat#: G7570) were added to each well, and incubated for 15 min at room temperature. Luminescence was recorded using a Biotek Synergy H4 microplate reader. Viability is expressed as a % relative to wells containing media only (0%) and wells containing cells (100%).
In the absence of known pharmacological agents capable of inducing an increase of sAPPα release, we tested a small molecule (FIG. 2.4A insert, compound 1 in [2]) shown to decrease Aβ release. It was shown that decrease of Aβ release could be accompanied by the increase of soluble APPα, which has a neuroprotective effect. Compound 1 was tested using 20,000 cells/well in the range of 1.2-100 μM using 3-fold serial dilutions and 24 h incubation as an assay endpoint. Increase of sAPPα release was observed only in wells where 100 μM of compound 1 was added either with or without FBS (FIG. 2.4A). Viability of cells was also tested in the presence of 1.2-100 μM of compound 1 to ascertain that the increase of sAPPα release is not due to excessive cell death. Consistent with the above described results, cells were less viable in the absence of FBS. In the presence of 1.2-33 μM of compound 1, cells were approximately 10% less viable than untreated control either with or without FBS (FIG. 2.4B).

[8] = system: sAPPα in conditioned medium of 7WD10 cells; assay: sAPPα release ELISA, 7WD10 cells; format: cell-based; details: 24 h
Experimental: Starting from p-methylbenzhydrylamine hydrochloride (MBHA.HCl) resin; we developed different approaches toward the diversity oriented solid-phase parallel synthesis of different aminothiazole compounds 1-6 (Scheme 1) (Micheals, H A et al., 2014, ACS Comb. Sci. 16, 1-4; Nefzi, A et al., 2010, J. Org. Chem. 75, 7939-7941). 575 thiazole compounds were synthesized and were tested for sAPPα increasing activity using CHO cells stably expressing APP751 wt. For initial screenings we used a cell-based human sAPPα ELISA kit (cat#27734, IBL Co., ltd, Japan) following instructions from the manufacturer. The method involves sandwich ELISA and use of two specific antibodies and tetra methyl benzidine as a coloring agent. […]
sAPPα and Aβ40 release ELISA assay. […] The principle of the method is based on the use of tetra methyl benzidine (TMB) as a chromogen and the strength of the generated color is proportional to the quantities of human sAPPα. […] Plates were incubated with chromogen solution for 30 minutes, and read at 450 nm after adding stop solution. Levels of Aβ40 in the CM treated with different concentrations of compound 1 as detailed above were measured by sandwich ELISA exactly as described previously. Aβ40 was captured with Ab9 antibody (epitope, 1-16 of Aβ40) and detected with horseradish peroxidase-conjugated Ab13.1.1 antibody (epitope, 35-40 of Aβ40).

[9] = system: sAPPα release from 7WD10 cells; assay: AlphaLISA sAPPα release assay (pilot screen); format: cell-based
Experimental: Pilot screen of AlphaLISA sAPPα release assay. 8 μL of assay media (DMEM supplemented with 10% FBS and 1× Penicillin/Streptomycin) containing 20,000 cells were added to all wells of the assay plate, except column 1 where only media was added. Plates were incubated for 4 h at 37° C., 5% CO2, 95% RH after which 80 nL of test compounds in DMSO or DMSO alone were added to respective wells using a pin tool device (VP Scientific, San Diego). After 24 h of incubation at 37° C., 5% CO2, 95% RH, sAPPα AlphaLISA beads were added in 10 μL of buffer, equilibrated for 1 h, and AlphaLISA signal was measured using a Biotek H4 Synergy microplate reader (Biotek Inc). Three parameters were calculated on a per-plate basis: (a) the signal-to-background ratio (S/B); (b) the coefficient for variation [CV; CV=(standard deviation/mean)×100)] for all compound test wells; and (c) the Z′-factor [31]. Nominally active compounds from the pilot screen were determined using mean plus 3 times the standard deviation (Mean+3SD) was used as the cut-off.

[10] = system: sAPPα release, fibroblasts derived from AD patients; assay: sAPPα ELISA, AD fibroblasts; format: cell-based, human; details: 24 h
Experimental: (1). […] Therefore, we first used fibroblasts derived from AD patients (AG06263C, Coriell Cell repository, supported by NINDS/NIH) and exposed to THPI-244 for 24 h and measured sAPPα release by ELISA as done above for NT2 cells. […] We also confirmed dose-dependent effect of THPI-244 on sAPPα levels in human primary neurons transiently transfected with APP751 with Swedish mutation which is trafficked differently from WT APP and releases more sAPPα. Human neurons were grown on specially coated glass coverslips (cat # GG-18-PDL, NeuVitro, Germany). We could reproducibly achieve nearly 30% transfection efficiency using a nanoparticle based transfection reagent called Neuromag (cat # NM150299, OZ Biosciences, France).

[11] = system: Aβ42 levels, NT2 cells stably expressing APP751; assay: Aβ42 ELISA, NT2 stable cells; format: cell-based, human; details: ELISA
Experimental: (§4) (5). To confirm the effect of THPI-244 on sAPPα levels in a neuronal cell line and by a tertiary assay, we exposed human Neuron-committed Teratocarcinoma cell line (NT2) stably expressing human APP751 to different concentrations of THPI-244 for 24 h and compared with that of Bryostatin, a classical activator of PKC known to stimulate sAPPα release. […] Levels of sAPPα were measured by ELISA using commercially available kit (cat #27734, IBL-America, Minneapolis, Minn., USA). […] Similar biphasic effect of Bryostatin was confirmed for Aβ42 also, measured again in NT2 stable cells by ELISA (cat # KHB3441, Life Technologies, Grand Island, N.Y., USA). Consistent with sAPPα, THPI-244 decreased Aβ42 levels dose-dependently starting from 50 nM (28%, p<0.05) to 2000 nM (64%, p<0.001) (n=4 independent experiments) (FIG. 1.7). Thus THPI-244 increased non-amyloidogenic processing of APP in NT2 cells.

[12] = system: sAPPα release, NT2 cells stably expressing human APP751; assay: sAPPα ELISA, NT2 cells expressing APP751; format: cell-based; details: 24 h
Experimental: as §4

[13] = system: sAPPα in supernatants of 7WD10 cells; assay: Western blot sAPPα release assay, 7WD10 cells; format: cell-based; details: as low as 10 nM, 7WD10 supernatants
Experimental: (2). To ascertain that hits identified as a result of AlphaLISA assay are not due to artifacts of the detection system, the sAPPα levels were measured by Western blots as a secondary assay downstream of primary HTS to confirm hits or discard artifacts of the AlphaLISA assay. The assay was performed using a range of concentrations of hit compounds (10-5,000 nM). A hit compound named thiazole piperazine #244 (THPI-244) and THPI-326 induced dose-dependent increase of sAPPα in supernatants of 7WD10 cells (FIG. 1.3). […] Since compound THPI-244 increased sAPPα levels more than THPI-326, we focused on THPI-244 for further validation.
as §2

SMILES: O=C(CCCCCCC(=O)Nc1ccccc1)NO [SAHA, suberoylanilide hydroxamic acid]
- Aβ [1]: decrease
- levels of APP-FL [1]: not affected
- sAPPβ [1]: decrease
- Aβ [2]: decrease
- levels of APP-FL [2]: not affected
- sAPPβ [2]: decrease

- % BBB [5]: 1.0%
SMILES: Cc1cnc(C(=O)N[C@H](CNc2nc(CN3CCNCC3)cs2)c2ccccc2)cn1 [TPI-2336-55]
- % TrkA ↑ [3]: 69%
- % sAPPα ↑ [4]: 217%

SMILES: O=C(NCCSCc1cccc(Cl)c1)c1c(Cl)cccc1Cl [compound 1, 2,6-dichloro-N-{2-[(3-chlorobenzyl)thio]ethyl}benzamide]
- decrease of Aβ40 supernatant levels ([6]; 100 μM): 24%
- decrease of Aβ40 supernatant levels ([6]; 125 μM): 43%
- decrease of Aβ40 supernatant levels ([6]; 150 μM): 49%
- viability ([7]; with FBS): ~70%
- viability ([7]; without FBS): ~40%
- loss of viability versus untreated control ([7]; 1.2-33 μM, with or without FBS): approximately 10%
- increase of sAPPα over untreated control cells ([8]; 100 μM): 2 fold
- maximal effect, increase of sAPPα ([8]; 150 μM): 3 fold
- increase of AlphaLISA signal ([9]; 100 μM compound 1, assay development and pilot screen): 2 fold
- concentration at which increase of sAPPα release was observed ([9]; tested 1.2-100 μM, 20,000 cells/well, 24 h, with or without FBS): 100 µM

- % BBB [5]: 5.6%
SMILES: c1ccc(CCNc2nc(CN3CCOCC3)cs2)cc1 [TPI-2336-99]
- % TrkA ↑ [3]: 51%
- % sAPPα ↑ [4]: 160%

SMILES: CCC/C=C/C=C/C(=O)O[C@H]1/C(=C/C(=O)OC)C[C@H]2C[C@H]([C@@H](C)O)OC(=O)C[C@H](O)C[C@@H]3C[C@H](OC(C)=O)C(C)(C)[C@](O)(C[C@@H]4C/C(=C/C(=O)OC)C[C@H](/C=C/C(C)(C)[C@]1(O)O2)O4)O3 [Bryostatin, reference compound]
- concentration from which sAPPα increase is significant [10]: 10 nM
- concentration from which Aβ42 decrease is significant [11]: 10 nM
- concentration from which sAPPα increase is significant [12]: 10 nM
- effect on sAPPα release [12]: increased sAPPα at low nM concentrations, but then decreased levels dose-dependently

- % BBB [5]: 5.9%
SMILES: c1ccc(CCNc2nc(CN3CCCCC3)cs2)cc1 [TPI-2336-100]
- % TrkA ↑ [3]: 54%
- % sAPPα ↑ [4]: 166%

SMILES: CCC(C)C(=O)N1CCN(Cc2csc(NC[C@H](Cc3ccc(O)cc3)NC(=O)Cc3ccccc3)n2)CC1 (stereo partly shown) [THPI-326]
- increase of sAPPα over untreated control cells [13]: 2 fold
- increase of Alpha signal (sAPPα release) ([9]; 5 μM, 7WD10 cells, 24 h): ~2 fold

Source: patent US20150315179A1, “COMPOUNDS AND METHODS OF TREATING NEUROLOGICAL DISORDERS” (Torrey Pines Institute For Molecular Studies, priority 2014, published 2015)
